# Experiments:
# [1] = single dose, oral pharmacokinetic study in rats (total EPA plasma levels); format: in vivo
# Excerpt: The results of a single dose, oral pharmacokinetic study in rats for a compound of Formula III (designated TP-252, Mg-Lys2-EPA2) are shown in Table 1 below. One of the parameters shown in Table 1 is the area under the curve (AUC), which is the integral of a plot of concentration of drug in blood plasma against time. The AUC is proportional to the total amount of the active pharmaceutical agent (API) that reaches the blood circulation. In this example, the API (or analyte) is EPA. AUC and Cmax are given for the compound of Formula III, EPA free fatty acid (EPA FFA), and EPA ethyl ester (EPA EE). EPA ethyl ester is the FDA-approved form of EPA.
# [2] = Physical stability study (proton NMR after exposure to air at room temperature); format: physicochemical
# Excerpt: FIG. 1: Proton NMR spectrum of magnesium bis-lysinate bis-EPA taken on the day the compound was synthesized (upper trace) and 60-days later (lower trace) with the compound having been exposed to air at room temperature for the entire 60-day period.
# The compounds of the invention are remarkably stable compared to omega-3 polyunsaturated free fatty acids, which typically show evidence of oxidative degradation with hours of exposure to atmospheric oxygen. […] The upper tracing in FIG. 1 is a proton NMR spectrum of magnesium bis-lysinate bis-EPA taken on the day the compound was synthesized. The lower tracing is the NMR taken 60-days later with the compound having been exposed to air at room temperature for the entire period.
compound,measurement,setting,value
"CC/C=C\C/C=C\C/C=C\C/C=C\C/C=C\CCCC(=O)O.CC/C=C\C/C=C\C/C=C\C/C=C\C/C=C\CCCC(=O)O.NCCCC[C@H](N)C(=O)[O-].NCCCC[C@H](N)C(=O)[O-].[Mg+2] [TP-252, magnesium bis-lysinate bis-EPA dihydrate]",EPA delivered to the blood plasma versus equivalent doses of EPA free fatty acid or EPA ethyl ester,[1],delivers significantly more EPA to the blood plasma
same,Baseline and EPA Molar Dose Equivalent Adjusted Cmax of Total EPA in plasma,"[1]; total dose 40.0 mg/kg, analyte EPA, Cmax minus predose level, multiplied by EPA molar dose adjustment factor",13200 ng/mL
same,Baseline and EPA Molar Dose Equivalent Adjusted AUC0-18 hrs of Total EPA in plasma,"[1]; total dose 40.0 mg/kg, analyte EPA, baseline adjusted and multiplied by EPA molar dose adjustment factor",133 µg·h/mL
same,proton NMR evidence of oxidation or degradation,[2]; after 60 days exposed to air at room temperature versus day of synthesis,no evidence of oxidation or degradation by other mechanisms
same,time chemically stable,"[2]; room temperature, exposed to air",at least 60 days

# Source: US9242008B2, “Mineral amino-acid complexes of fatty acids” (Thetis Pharmaceuticals LLC, priority 2014, dated 2016)
